Data published in patent publication US11465998B2, “Therapeutic compounds and methods of use thereof” (Regents of the University of Minnesota, priority 2019, dated 2022).

Columns and labels:
[1] = system: microglial cell line derived from MAL/MyD88 double knockout Mice (NR-9904); assay: Cytokine/chemokine induction in MAL/MyD88 double-knockout cell line; assay type: cell-based; conditions: MAL/MyD88 double-knockout murine cell line
Procedure: (§1) Cytokine induction by 7e and 7f was examined in murine-derived cell lines. […] The absence of activity was not due to extensive plasma protein binding by re-examining under near-serum-free conditions.
(§2) Example 5: High-throughput screens in porcine blood: Curated compound collections were obtained from the Institute for Therapeutics Discovery & Development at the University of Minnesota. Compound transfers from source (80 nL of 10 mM stocks) to assay plates were performed using an Echo 550 acoustic liquid handler (Labcyte, Sunnyvale, Calif.). For most libraries, a target final concentration of 10 μM of compound (in a final volume of 80 μL for the assay described below) was achieved. Compound plates were hermetically sealed and stored at −80° C. until used. Fresh, heparin-anticoagulated porcine blood from healthy animals were obtained under USDA supervision from Midwest Research Swine, LLC (Glencoe, Minn.). 80 μL of hematocrit-enriched porcine blood (low-speed centrifugation, followed by resuspension in DMEM supplemented with 10% fetal bovine serum) was added to compound plates and incubated for 15 h. […] NF-κB translocation was assayed spectrophotometrically using an alkaline phosphatase-specific chromogen (present in HEK-detection medium as supplied by InvivoGen) at 620 nm using a SpectraMax M4 multimode microplate reader (Molecular Devices, Sunnyvale, Calif.). […] Example 7: Human NOD1/2-specific reporter gene assays (NF-κB induction), and TLR-2/-3/-4/-5/-7/-8/-9/STING/ISG counter-screens: The induction of NF-κB was quantified using human TLR-2/-3/-4/-5/-7/-8/-9/NOD-1/NOD-2/STING/ISG-specific, rapid-throughput, liquid handler-assisted reporter gene assays as previously described by us (Wu, W. et al. J. Med. Chem. 2010, 53, 3198-3213; Shukla, N. M. et al. J. Med. Chem. 2010, 53, 4450-4465; Agnihotri, G. et al. J. Med. Chem. 2011, 54, 1490-1510 and Ukani, R. et al. Bioorg. Med. Chem. Lett. 2012, 22, 293-295). […]

[2] = system: macrophage cell line derived from TRIF/TRAM knockout mice (NR-9568); assay: Cytokine/chemokine induction in TRIF/TRAM double-knockout cell line; assay type: cell-based; conditions: TRIF/TRAM double-knockout murine cell line
Procedure: as §1, §2

Row | Structure (SMILES) | cytokine and chemokine induction [1] | cytokine and chemokine induction [2]
1 | CCCCCc1nc2ccccc2n1-c1csc(C(N)=O)c1 [Compound 7e, 4-(2-Pentyl-1H-benzo[d]imidazol-1-yl)thiophene-2-carboxamide] | abrogation of responsiveness | abrogation of responsiveness
2 | CCCCCCc1nc2ccccc2n1-c1csc(C(N)=O)c1 [Compound 7f, 4-(2-Hexyl-1H-benzo[d]imidazol-1-yl)thiophene-2-carboxamide] | essentially identical to that of 7e | essentially identical to that of 7e
